The test concerns the target T1, Human IDO1 (Homo sapiens, UniProt P14902).
T1 construct: expressed in transfected cells; host or cells: HEK293
In words: IDO Kynurenine Assay with Human IDO1/HEK293 Cells. It is filed as cell-based. The settings on record: read-out: HEK human IDO-1 (IC50). The procedure:
IDO Kynurenine Assay with Human IDO1/HEK293 Cells
Human IDO1/HEK293 cells were seeded at 10,000 cells per 50 uL per well with RPMI/phenol red free media contains 10% FBS in a 384-well black wall clear bottom tissue culture plate (Matrix Technologies LLC) 125 nL of certain concentration of compound was then added to each well using ECHO liquid handling systems. The cells were incubated for 20 hours in 37° C. incubator with 5% CO2.
The compound treatments were stopped by adding Trichloroacetic Acid (Sigma-Aldrich) to a final concentration at 0.2%. The cell plate was further incubated at 50° C. for 30 minute. The equal volume supernatant (20 uL) and 0.2% (w/v) Ehrlich reagent (4-dimethylaminobenzaldehyde, Sigma-Aldrich) in glacial acetic acid were mixed in a new clear bottom 384-well plate. This plate was then incubated at room temperature for 30 minute. The absorbance at 490 nm was measured on Envision plate reader.
Compound IC50 values were calculated using the counts of 500 nM of a reference standard treatment as one hundred percent inhibition, and counts of no compound but DMSO treatment as zero percent inhibition.
T1 sequence (P14902 whole entry): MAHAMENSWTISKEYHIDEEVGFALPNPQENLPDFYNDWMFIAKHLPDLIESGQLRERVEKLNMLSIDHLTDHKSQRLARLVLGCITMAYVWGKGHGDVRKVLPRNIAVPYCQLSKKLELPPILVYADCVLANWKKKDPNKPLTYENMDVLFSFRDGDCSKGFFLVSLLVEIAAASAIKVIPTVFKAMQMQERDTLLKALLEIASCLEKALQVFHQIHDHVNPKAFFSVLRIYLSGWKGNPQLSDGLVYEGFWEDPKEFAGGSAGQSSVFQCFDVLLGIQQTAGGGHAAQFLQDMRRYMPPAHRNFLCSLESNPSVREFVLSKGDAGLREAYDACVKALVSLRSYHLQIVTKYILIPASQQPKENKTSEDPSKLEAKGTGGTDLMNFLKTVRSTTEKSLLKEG
For the compound `CC(C)CN(CC(C)C)c1ccc(-c2ccccc2-c2nnn[nH]2)cc1NC(=O)NC1CCCC1` [Example 464], the IC50 was 790 nM. The result for `Cc1ccc(NC(=O)Nc2cc(-c3ccccc3-c3nnn[nH]3)ccc2N(CCOC(C)C)CC(C)C)cc1` [Example 465] reads 200 nM; that for `Cc1ccc(NC(=O)Nc2cc(-c3cc(F)ccc3C(=O)O)ccc2N(CCOC(C)C)CC(C)C)cc1` [Example 466], 1740 nM. The result for `Cc1ccc(NC(=O)Nc2cc(-c3ccccc3-c3nnn[nH]3)ccc2N(CCCC(F)(F)F)C2CCCCC2)cc1` [Example 467] reads 10 nM; that for `[2H]C([2H])(C(C)C)N(c1ccc(-c2cc(F)ccc2C(=O)O)cc1NC(=O)Nc1ccc(C)cc1)C([2H])([2H])C(C)C` [Example 477], 7.65 nM. The result for `[2H]C([2H])(C(C)C)N(c1ccc(-c2ccccc2C(=O)O)cc1NC(=O)Nc1ccc(C)cc1)C([2H])([2H])C(C)C` [Example 478] reads 10 nM. On to `CC(C)CN(c1cc(F)c(-c2cc(F)ccc2C(=O)O)cc1NC(=O)Nc1ccc(OC(F)(F)F)cc1)C1CCCCC1` [Example 485], for which the IC50 was determined as 5.75 nM.

As to `CC(C)CN(c1cc(F)c(-c2cc(F)ccc2C(=O)O)cc1NC(=O)Nc1cncnc1)C1CCCCC1` [Example 486], the IC50 came out at 30 nM.

Take `CC(C)CN(c1ccc(-c2cc(F)ccc2C(=O)O)cc1NC(=O)Nc1cnc2c(c1)ncn2C)C1CCCCC1` [Example 487]: the 50% inhibitory concentration (IC50) was determined as 1050 nM. `CC(C)CN(c1ccc(-c2cc(F)ccc2C(=O)O)cc1NC(=O)Nc1ccc(C#N)nc1)C1CCCCC1` [Example 488]: the IC50 is 3.46 nM. The result for `CC(C)CN(CC(C)C)c1ccc(-c2ccccc2-c2nnn[nH]2)cc1NC(=O)Nc1ccc(C#N)nc1` [Example 489] reads 220 nM; that for `Cc1ccc(NC(=O)Nc2cc(-c3cccc(Cl)c3C(=O)O)ccc2N(CC(C)C)CC(C)C)cc1` [Example 492], 160 nM; that for `Cc1ccc(NC(=O)Nc2cc(-c3cc(Cl)ccc3C(=O)O)ccc2N(CC(C)C)CC(C)C)cc1` [Example 493], 120 nM. Turning to `COc1ccc(-c2ccc(N(CC(C)C)CC(C)C)c(NC(=O)Nc3ccc(Cl)cc3F)c2)c(C(=O)O)c1` [Example 494], the IC50 was 30 nM. As for `Cc1ccc(NC(=O)Nc2cc(-c3cccc(OC(F)(F)F)c3C(=O)O)ccc2N(CC(C)C)CC(C)C)cc1` [Example 495], the figure is 50 nM. The result for `CC(C)CN(CC(C)C)c1ccc(-c2cccc(OC(F)(F)F)c2C(=O)O)cc1NC(=O)Nc1ccc(Cl)cc1F` [Example 496] reads 10 nM; that for `COc1ccc(-c2ccc(N(CC(C)C)CC(C)C)c(NC(=O)Nc3ccc(C)cc3)c2)c(C(=O)O)c1` [Example 497], 230 nM. As for `COc1ccc(-c2ccc(N(CC(C)C)CC(C)C)c(NC(=O)Nc3ccc(C#N)nc3)c2)c(C(=O)O)c1` [Example 498], the figure is 590 nM. On to `COc1cccc(-c2ccc(N(CC(C)C)CC(C)C)c(NC(=O)Nc3ccc(C#N)nc3)c2)c1C(=O)O` [Example 499], for which the half-maximal inhibitory concentration (IC50) was 1260 nM. As for `COc1cccc(-c2ccc(N(CC(C)C)CC(C)C)c(NC(=O)Nc3ccc(Cl)cc3F)c2)c1C(=O)O` [Example 500], the figure is 20 nM; as for `CC(C)CN(CC(C)C)c1ccc(-c2cccc(OC(F)(F)F)c2C(=O)O)cc1NC(=O)Nc1ccc(C#N)nc1` [Example 501], 320 nM. In the case of `Cc1c(Br)cc(NC(=O)Nc2cc(-c3cc(F)ccc3C(=O)O)ccc2N(CC(C)C)C2CCCCC2)cc1Br` [Example 507, 4′-(Cyclohexyl(isobutyl)amino)-3′-(3-(3,5-dibromo-4-methylphenyl)ureido)-5-fluoro-[1,1′-biphenyl]-2-carboxylic acid], the IC50 came to 2870 nM. In the case of `Cc1cc(NC(=O)Nc2cc(-c3ccccc3-c3nnn[nH]3)ccc2N(C2CC2)C2CC2)no1` [Example 509, 1-(4-(Dicyclopropylamino)-2′-(1H-tetrazol-5-yl)-[1,1′-biphenyl]-3-yl)-3-(5-methylisoxazol-3-yl)urea], the IC50 stood at 6630 nM. As for `CC(C)CN(c1cc(F)c(-c2cc(F)ccc2C(=O)O)cc1NC(=O)Nc1ccn(C)n1)C1CCCCC1` [Example 515, 4′-(Cyclohexyl(isobutyl)amino)-2′,5-difluoro-5′-(3-(1-methyl-1H-pyrazol-3-yl)ureido)-[1,1′-biphenyl]-2-carboxylic acid], the figure is 4220 nM. The result for `Cc1cccc(NC(=O)Nc2cc(-c3cc(F)ccc3C(=O)O)c(F)cc2N(CC(C)C)C2CCCCC2)c1` [Example 516, 4′-(Cyclohexyl(isobutyl)amino)-2′,5-difluoro-5′-(3-(m-tolyl)ureido)-[1,1′-biphenyl]-2-carboxylic acid] reads 50 nM. Take `CC(C)CN(c1cc(F)c(-c2cc(F)ccc2C(=O)O)cc1NC(=O)Nc1ccc(C(F)(F)F)nc1)C1CCCCC1` [Example 517, 4′-(Cyclohexyl(isobutyl)amino)-2′,5-difluoro-5′-(3-(6-(trifluoromethyl)pyridin-3-yl)ureido)-[1,1′-biphenyl]-2-carboxylic acid]: the IC50 was determined as 70 nM. Turning to `Cc1cc(NC(=O)Nc2cc(-c3cc(F)ccc3C(=O)O)c(F)cc2N(CC(C)C)C2CCC(F)(F)CC2)no1` [Example 518, 4′-((4,4-Difluorocyclohexyl)(isobutyl)amino)-2′,5-difluoro-5′-(3-(5-methylisoxazol-3-yl)ureido)-[1,1′-biphenyl]-2-carboxylic acid], the IC50 is 20 nM.

`Cc1ccc(NC(=O)Nc2cc(-c3cc(F)ccc3C(=O)O)c(F)cc2N(CC(C)C)C2CCC(F)(F)CC2)cc1` [Example 519, 4′-((4,4-Difluorocyclohexyl)(isobutyl)amino)-2′,5-difluoro-5′-(3-(p-tolyl)ureido)-[1,1′-biphenyl]-2-carboxylic acid]: the IC50 was found to be 6.91 nM. As for `CC(C)CN(c1cc(F)c(-c2cc(F)ccc2C(=O)O)cc1NC(=O)Nc1cnn(CC(F)(F)F)c1)C1CCC(F)(F)CC1` [Example 520, 4′-((4,4-Difluorocyclohexyl)(isobutyl)amino)-2′,5-difluoro-5′-(3-(1-(2,2,2-trifluoroethyl)-1H-pyrazol-4-yl)ureido)-[1,1′-biphenyl]-2-carboxylic acid], the figure is 4870 nM. On to `Cc1cc(NC(=O)Nc2cc(-c3cc(F)ccc3C(=O)O)c(F)cc2N(CC(C)C)C2CCC(F)(F)CC2)on1` [Example 521, 4′-((4,4-Difluorocyclohexyl)(isobutyl)amino)-2′,5-difluoro-5′-(3-(3-methylisoxazol-5-yl)ureido)-[1,1′-biphenyl]-2-carboxylic acid], for which the IC50 turned out to be 8.44 nM. In the case of `Cc1ccc(NC(=O)Nc2cc(-c3cc(F)ccc3C(=O)O)c(F)cc2N(CC(C)C)C2CCCCC2)nn1` [Example 522, 4′-(Cyclohexyl(isobutyl)amino)-2′,5-difluoro-5′-(3-(6-methylpyridazin-3-yl)ureido)-[1,1′-biphenyl]-2-carboxylic acid], the IC50 turned out to be 1220 nM. Turning to `CC(C)CN(c1cc(F)c(-c2cc(F)ccc2C(=O)O)cc1NC(=O)Nc1ccc(C2CCCCC2)cc1)C1CCCCC1` [Example 523, 4′-(Cyclohexyl(isobutyl)amino)-5′-(3-(4-cyclohexylphenyl)ureido)-2′,5-difluoro-[1,1′-biphenyl]-2-carboxylic acid], the IC50 is 5520 nM. As for `CC(C)CN(c1cc(F)c(-c2cc(F)ccc2C(=O)O)cc1NC(=O)Nc1ccc(N2CCOCC2)cc1)C1CCCCC1` [Example 524, 4′-(Cyclohexyl(isobutyl)amino)-2′,5-difluoro-5′-(3-(4-morpholinophenyl)ureido)-[1,1′-biphenyl]-2-carboxylic acid], the figure is 2720 nM; as for `Cc1cnc(NC(=O)Nc2cc(-c3cc(F)ccc3C(=O)O)c(F)cc2N(CC(C)C)C2CCCCC2)cn1` [Example 525, 4′-(Cyclohexyl(isobutyl)amino)-2′,5-difluoro-5′-(3-(5-methylpyrazin-2-yl)ureido)-[1,1′-biphenyl]-2-carboxylic acid], 90 nM. As for `Cc1ccc(C(=O)O)c(-c2ccc(N(CC(C)C)CC(C)C)c(NC(=O)Nc3ccccc3F)c2)c1` [Example 526, 4′-(Diisobutylamino)-3′-(3-(2-fluorophenyl)ureido)-5-methyl-[1,1′-biphenyl]-2-carboxylic acid], the figure is 240 nM. As for `Cc1ccc(C(=O)O)c(-c2ccc(N(CC(C)C)CC(C)C)c(NC(=O)Nc3ccc(Cl)cc3F)c2)c1` [Example 527, 3′-(3-(4-Chloro-2-fluorophenyl)ureido)-4′-(diisobutylamino)-5-methyl-[1,1′-biphenyl]-2-carboxylic acid], the figure is 40 nM; as for `Cc1ccc(C(=O)O)c(-c2ccc(N(CC(C)C)CC(C)C)c(NC(=O)Nc3ccc(F)cc3F)c2)c1` [Example 528, 3′-(3-(2,4-Difluorophenyl)ureido)-4′-(diisobutylamino)-5-methyl-[1,1′-biphenyl]-2-carboxylic acid], 160 nM; as for `CCOc1ccc(NC(=O)Nc2cc(-c3cc(C)ccc3C(=O)O)ccc2N(CC(C)C)CC(C)C)cc1` [Example 529, 4′-(Diisobutylamino)-3′-(3-(4-ethoxyphenyl)ureido)-5-methyl-[1,1′-biphenyl]-2-carboxylic acid], 390 nM. In the case of `Cc1ccc(NC(=O)Nc2cc(-c3cc(C)ccc3C(=O)O)ccc2N(CC(C)C)CC(C)C)cc1` [Example 530, 4′-(Diisobutylamino)-5-methyl-3′-(3-(p-tolyl)ureido)-[1,1′-biphenyl]-2-carboxylic acid], the IC50 worked out at 300 nM.

For the origin of these results see patent publication US9758492B2, “IDO inhibitors” (Bristol-Myers Squibb Company, priority 2013, dated 2017).
